Source: EPA's ToxValDB 9.5 (doi:10.2903/j.efsa.2010.1906)
≈ marks a conversion by molar mass, not a printed value.

Tests used:
Anas platyrhynchos = details: reproductive
Apis mellifera = details: acute; duration: 48 hours; oral; unspecified; mortality
Bibionidae = details: chronic/long-term; duration: 28 days; development
Canidae = details: subchronic; duration: 90 days; oral; F; Dog Other; body weight
Colinus virginianus = details: acute, oral, mortality
Daphnia magna = details: chronic/long-term; duration: 21 days; reproduction
Folsomia candida = details: chronic/long-term, duration: 28 days
Landoltia sp. = details: acute; duration: 14 days
Lepomis macrochirus = details: acute; duration: 96 hours; mortality
Mus musculus = details: chronic; histopathology: neoplastic
Oryctolagus sp. = details: developmental; development
Pimephales promelas = details: chronic/long-term; duration: 34 days; reproduction
Rattus norvegicus = details: oral

In the case of CCOc1cc(Oc2ccc(C(F)(F)F)cc2Cl)ccc1[N+](=O)[O-] [Oxyfluorfen], the NOEL (Anas platyrhynchos) is reported as 64.7 mg/kg-day, the LD50 (Apis mellifera) is reported as over 100 µg/piece and the NOEC (Bibionidae) is reported as 0.08 mg/L. It also gave an NOAEL (Canidae) of 2.17 mg/kg-day, an LD50 (Colinus virginianus; diet) of over 462 mg/kg-day and an LD50 (Colinus virginianus) of over 2150 mg/kg-day. It also gave an NOEC (Daphnia magna) of 0.013 mg/L, an LC50 (Folsomia candida; mortality) of 2.78 mg/kg and an NOEC (Folsomia candida; reproduction) of 1.25 mg/kg. The NOEC (Landoltia sp.) was 0.00195 mg/L, the LC50 (Lepomis macrochirus) was 0.21 µg/mL (≈ 0.581 µM) and the NOAEL (Mus musculus) was 3 mg/kg-day. For the same compound, the NOAEL (Oryctolagus sp.) was 30 mg/kg-day, the NOEC (Pimephales promelas) was 0.038 mg/L and the LD50 (Rattus norvegicus; acute, mortality) was over 5000 mg/kg-day. The NOAEL (Rattus norvegicus; chronic, duration: 2 years) was 20 mg/kg-day, the LC50 (Tagia sp.; acute, duration: 14 days, mortality) was over 1000 mg/kg and the NOEC (Tagia sp.; chronic/long-term, duration: 56 days) was 24 mg/kg.
